Test results as given in patent US10392422B2, “Macrocyclic broad spectrum antibiotics” (priority 2014, dated 2019).
≈ marks a conversion by molar mass, not a printed value. Where two headings read alike, the source gives them in different places.

Columns and labels:
Assay in all cases: MIC, broth micro-dilution technique (CLSI)
[1] = test system: Methicillin Resistant Staphylococcus aureus strain USA 300 (NRS384); type: cell-based; details: for MIC: Staphylococcus aureus, 22 h, read-out: MIC (μg/mL) S. aureus
Procedure, shortened: (§1)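 Cation-adjusted MHB + 0.002% Tween-80; 10-point 2-fold series starting 64 μg/ml (modified protocol: 4 μg/mL). Final inoculum OD600 0.0005; 35° C, 22 h. MIC per CLSI M07-A8 broth microdilution.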

[2] = test system: Escherichia coli MC4100 harboring the IMP4213; type: cell-based; details: 35° C., 22 hours; for MIC: Escherichia coli, 22 h
Procedure, shortened: as §1

[3] = test system: MRSA COL (NRS100); type: cell-based, Staphylococcus aureus; details: for MIC: Staphylococcus aureus, 22 h, read-out: MIC (μg/mL) (COL)
Procedure, shortened: as §1

[4] = Table 2 modified protocol: serial 2-fold dilutions starting from 4 μg/mL, 35° C., 22 hours
[5] = read-out: MIC (μg/mL) E. coli, Table 2 modified protocol: serial 2-fold dilutions starting from 4 μg/mL
[6] = Table 2 modified protocol: serial 2-fold dilutions starting from 4 μg/mL
[7] = Table 1 protocol: serial 2-fold dilutions starting from 64 μg/ml, 35° C., 22 hours
[8] = read-out: MIC (μg/mL) E. coli, Table 1 protocol: serial 2-fold dilutions starting from 64 μg/ml

| Compound | MIC [2, 5] [µg/mL] | MIC [1] [µg/mL] | MIC [3] [µg/mL] | MIC [2, 8] [µg/mL] | other results |
| --- | --- | --- | --- | --- | --- |
| C[C@@H]1NC(=O)[C@@H](N(C)C(=O)[C@H](CCCCN)NC(=O)c2ccc(-c3ccc(Cl)cc3)cc2)c2ccc(O)c(c2)-c2cc(ccc2O)C[C@@H](C(=O)N[C@@H](C)C(=O)C(=O)Nc2cn[nH]c2)NC1=O [Compound 242] | > 4 | – | – | – | MIC [1, 4]: > 4 µg/mL; MIC [3, 4]: 4 µg/mL (≈ 4.35 µM) |
| CCCCCCCCCCS(=O)(=O)N[C@@H](CCCCN)C(=O)N(C)[C@@H]1C(=O)N[C@@H](C)C(=O)N[C@H](C(=O)N[C@@H](C)C(=O)c2nnn[nH]2)Cc2ccc(OCCN)c(c2)-c2cc1ccc2OCCN.O=CO [Compound 258] | – | – | – | – | MIC (μg/mL) S. aureus [1, 4]: 0.047 µg/mL; MIC (μg/mL) E. coli [2, 6]: 4 µg/mL; MIC (μg/mL) (COL) [3, 4]: 0.012 µg/mL |
| CCCCCCCCc1ccc(C(=O)N[C@@H](CCCN)C(=O)N(C)[C@@H]2C(=O)N[C@@H](C)C(=O)N[C@H](C(=O)NCB3O[C@@H]4C[C@@H]5C[C@@H](C5(C)C)[C@]4(C)O3)Cc3ccc(OCCN)c(c3)-c3cc2ccc3OCCN)cc1 [Compound 324] | 0.13 (≈ 0.127 µM) | 0.25 (≈ 0.245 µM) | 0.13 (≈ 0.127 µM) | – | – |
| CCCCc1ccc(-c2cccc(C(=O)N[C@@H](CCCCN)C(=O)N(C)[C@@H]3C(=O)N[C@@H](C)C(=O)N[C@H](C(=O)O)Cc4ccc(OCCN)c(c4)-c4cc3ccc4OCCN)c2)cc1 [Compound 288] | 0.13 (≈ 0.15 µM) | 0.5 (≈ 0.579 µM) | 0.25 (≈ 0.289 µM) | – | – |
| C[C@@H]1NC(=O)[C@@H](N(C)C(=O)[C@H](CCCCN)NC(=O)c2ccc(-c3ccc(Cl)cc3)cc2)c2ccc(OCCN)c(c2)-c2cc(ccc2OCCN)C[C@@H](C(=O)N[C@@H](C)C(=O)N2CCC[C@H]2C(N)=O)NC1=O [Compound 277] | – | – | – | 2 (≈ 1.98 µM) | MIC [1, 7]: 0.75 µg/mL (≈ 0.743 µM); MIC [3, 7]: 0.25 µg/mL (≈ 0.248 µM) |
| C[C@@H]1NC(=O)[C@@H](N(C)C(=O)[C@H](CCCCN)NC(=O)c2ccc(-c3ccc(Cl)cc3)cc2)c2ccc(OCCN)c(c2)-c2cc(ccc2OCCN)C[C@@H](C(=O)N[C@@H](C)C(=O)c2[nH]ncc2[N+](=O)[O-])NC1=O [Compound 273] | – | – | – | – | MIC (μg/mL) S. aureus [1, 4]: 0.75 µg/mL (≈ 0.744 µM); MIC (μg/mL) E. coli [2, 6]: 4 µg/mL (≈ 3.97 µM); MIC (μg/mL) (COL) [3, 4]: 0.38 µg/mL (≈ 0.377 µM) |
| CNCCCNCCOc1ccc2cc1-c1cc(ccc1O)C[C@@H](C(=O)N[C@@H](C)C(C)=O)NC(=O)[C@H](C)NC(=O)[C@H]2N(C)C(=O)[C@H](CCCCN)NC(=O)c1ccc(-c2ccc(Cl)cc2)cc1 [Compound 206] | – | – | – | 4 (≈ 4.26 µM) | MIC [1, 7]: 4 µg/mL (≈ 4.26 µM); MIC [3, 7]: 0.19 µg/mL (≈ 0.202 µM) |
| C[C@@H]1NC(=O)[C@@H](N(C)C(=O)[C@H](CCCCN)NC(=O)c2ccc(-c3ccc(Cl)cc3)cc2)c2ccc(O)c(c2)-c2cc(ccc2O)C[C@@H](C(=O)N[C@@H](C)C(=O)C2CO2)NC1=O (stereo partly drawn) [Compound 104] | – | – | – | 2 (≈ 2.34 µM) | MIC [1, 7]: 2.8 µg/mL (≈ 3.28 µM); MIC [3, 7]: 2 µg/mL (≈ 2.34 µM) |
| C[C@@H]1NC(=O)[C@@H](N(C)C(=O)[C@H](CCCCN)NC(=O)c2ccc(-c3ccc(Cl)cc3)cc2)c2ccc(O)c(c2)-c2cc(ccc2O)C[C@@H](C(=O)N[C@@H](C)C(=O)C(F)(F)C(=O)O)NC1=O [Compound 152] | – | – | – | – | MIC (μg/mL) S. aureus [1, 7]: 10 µg/mL (≈ 11 µM); MIC (μg/mL) E. coli ([2]; Table 1 protocol: serial 2-fold dilutions starting from 64 μg/ml): 16 µg/mL (≈ 17.7 µM); MIC (μg/mL) (COL) [3, 7]: 4 µg/mL (≈ 4.42 µM) |
| C[C@@H]1NC(=O)[C@@H](N(C)C(=O)[C@H](CCCCN)NC(=O)c2ccc(-c3ccc(Cl)cc3)cc2)c2ccc(O)c(c2)-c2cc(ccc2O)C[C@@H](C(=O)N[C@@H](C)C(=O)N(C)[C@@H](C)C(N)=O)NC1=O [Compound 183] | – | – | – | 32 (≈ 35.1 µM) | MIC [1, 7]: 8 µg/mL (≈ 8.78 µM); MIC [3, 7]: 2.4 µg/mL (≈ 2.63 µM) |
| CCCCCCCCC(=O)N[C@@H](CCN)C(=O)N(C)[C@@H]1C(=O)N[C@@H](C)C(=O)N[C@H](C(=O)O)Cc2ccc(OCCN)c(c2)-c2cc1ccc2OCCN [Compound 307] | 1 (≈ 1.35 µM) | 4 (≈ 5.41 µM) | 3 (≈ 4.05 µM) | – | – |
| CCCCCCCCc1ccc(C(=O)N[C@@H](CCCN)C(=O)N(C)[C@@H]2C(=O)N[C@@H](C)C(=O)N[C@H](C(=O)N[C@@H](C)B3O[C@@H]4C[C@@H]5C[C@@H](C5(C)C)[C@]4(C)O3)Cc3ccc(OCCCN)c(c3)-c3cc2ccc3OCCCN)cc1 [Compound 323] | 0.063 (≈ 0.0593 µM) | 0.13 (≈ 0.122 µM) | 0.031 (≈ 0.0292 µM) | – | – |
| CCCCCCCCCCC(=O)N[C@@H](CCN)C(=O)N(C)[C@@H]1C(=O)N[C@@H](C)C(=O)N[C@H](C(=O)O)Cc2ccc(OCCN)c(c2)-c2cc1ccc2OCCN [Compound 305] | 0.13 (≈ 0.169 µM) | 1 (≈ 1.3 µM) | 0.38 (≈ 0.495 µM) | – | – |
| C[C@@H]1NC(=O)[C@@H](N(C)C(=O)[C@H](CCCCN)NC(=O)c2ccc(Oc3ccc(Cl)cc3)cc2)c2ccc(OCCN)c(c2)-c2cc(ccc2OCCN)C[C@@H](C(=O)O)NC1=O [Compound 285] | 0.25 (≈ 0.291 µM) | 2 (≈ 2.33 µM) | 0.5 (≈ 0.582 µM) | – | – |
| CCCCCCCCCC(=O)N[C@@H](CC[S+](C)[O-])C(=O)N(C)[C@@H]1C(=O)N[C@@H](C)C(=O)N[C@H](C(=O)N[C@@H](C)C(C)=O)Cc2ccc(OCCN)c(c2)-c2cc1ccc2OCCN (stereo partly drawn) [Compound 262] | – | – | – | – | MIC (μg/mL) S. aureus [1, 4]: >4 µg/mL; MIC (μg/mL) E. coli [2, 6]: >4 µg/mL; MIC (μg/mL) (COL) [3, 4]: 2 µg/mL (≈ 2.3 µM) |
| CCCCCCCCCCCCCC(=O)N[C@@H](CCN)C(=O)N(C)[C@@H]1C(=O)N[C@@H](C)C(=O)N[C@H](C(=O)N[C@@H](C)B2O[C@@H]3C[C@@H]4C[C@@H](C4(C)C)[C@]3(C)O2)Cc2ccc(OCCN)c(c2)-c2cc1ccc2OCCN [Compound 325] | 0.13 (≈ 0.128 µM) | 0.13 (≈ 0.128 µM) | 0.023 (≈ 0.0227 µM) | – | – |
| CC(=O)[C@H](C)NC(=O)[C@@H]1Cc2ccc(O)c(c2)-c2cc(ccc2O)[C@H](N(C)C(=O)[C@H](CCCCN)NC(=O)c2ccc(-c3ccc(Cl)cc3)cc2)C(=O)N[C@@H](C)C(=O)N1 [Compound 109] | – | 4 (≈ 4.85 µM) | 1 (≈ 1.21 µM) | 64 (≈ 77.5 µM) | – |
| CCCCCCCCc1ccc(C(=O)N[C@@H](CCN)C(=O)N(C)[C@@H]2C(=O)N[C@@H](C)C(=O)N[C@H](C(=O)O)Cc3ccc(OCCN)c(c3)-c3cc2ccc3OCCN)c(C)c1 [Compound 302] | 0.0088 (≈ 0.0106 µM) | 0.11 (≈ 0.133 µM) | 0.039 (≈ 0.047 µM) | – | – |
| CCCCCCCCCCNCCC(=O)N[C@@H](CCCCN)C(=O)N(C)[C@@H]1C(=O)N[C@@H](C)C(=O)N[C@H](C(=O)N[C@@H](C)C(C)=O)Cc2ccc(O)c(c2)-c2cc1ccc2OC1O[C@H](CO)[C@@H](O)[C@H](O)[C@H]1N (stereo partly drawn) [Compound 339] | > 4 | 2 (≈ 2.03 µM) | 1 (≈ 1.02 µM) | – | – |
| CCCCCCCCc1ccc(C(=O)N(C)[C@@H]2C(=O)N[C@@H](C)C(=O)N[C@H](C(=O)NCB3O[C@@H]4C[C@@H]5C[C@@H](C5(C)C)[C@]4(C)O3)Cc3ccc(OCCN)c(c3)-c3cc2ccc3OCCN)cc1 [Compound 320] | – | 6 (≈ 6.62 µM) | 2 (≈ 2.21 µM) | 4 (≈ 4.41 µM) | – |
| C[C@@H]1NC(=O)[C@@H](N(C)C(=O)[C@H](CCCCN)NC(=O)c2ccc(-c3ccc(Cl)cc3)cc2)c2ccc(OCCN)c(c2)-c2cc(ccc2OCCN)C[C@@H](C(=O)N[C@@H](C)C(=O)c2nc(Cl)n[nH]2)NC1=O [Compound 275] | 2 (≈ 2 µM) | – | – | – | MIC [1, 4]: 1 µg/mL (≈ 1 µM); MIC [3, 4]: 0.13 µg/mL (≈ 0.13 µM) |
| C[C@@H]1NC(=O)[C@@H](N(C)C(=O)[C@H](CCCCN)NC(=O)c2ccc(-c3ccc(Cl)cc3)cc2)c2ccc(O)c(c2)-c2cc(ccc2O)C[C@@H](C(=O)N[C@@H](C)C(=O)N(C)[C@H]2CCNC2=O)NC1=O [Compound 136] | – | – | – | 16 (≈ 17.3 µM) | MIC [1, 7]: 8 µg/mL (≈ 8.66 µM); MIC [3, 7]: 2 µg/mL (≈ 2.17 µM) |
| C[C@H](NC(=O)[C@@H]1Cc2ccc(O)c(c2)-c2cc(ccc2O)[C@H](N(C)C(=O)[C@H](CCCCN)NC(=O)c2ccc(-c3ccc(Cl)cc3)cc2)C(=O)N[C@@H](C)C(=O)N1)C(=O)CN=[N+]=[N-] [Compound 255] | – | 12 (≈ 13.9 µM) | 3 (≈ 3.46 µM) | > 64 | – |
| CCN(CC(N)=O)C(=O)[C@H](C)NC(=O)[C@@H]1Cc2ccc(O)c(c2)-c2cc(ccc2O)[C@H](N(C)C(=O)[C@H](CCCCN)NC(=O)c2ccc(-c3ccc(Cl)cc3)cc2)C(=O)N[C@@H](C)C(=O)N1 [Compound 234] | – | – | – | 64 (≈ 70.2 µM) | MIC [1, 7]: 64 µg/mL (≈ 70.2 µM); MIC [3, 7]: 8 µg/mL (≈ 8.78 µM) |
